In general, logP refers to the decadic logarithm of the partition coefficient of the neutral form, usually between octanol and water.

`CCCC(CCC)C(=O)O` displayed a logP of 2.57.

For the compound `O=C(O)CC1CCCCC1`, the logP was 2.31.

Turning to `CCC(CC)CC(=O)O`, the logP was 2.19.

In turn, `CCC=C(CCC)C(=O)O` gave a lipophilicity (logP) of 2.44.

Consider `CCC(C)(C)C(=O)O`, for which the logP amounted to 1.9.

`CCCCC(CCCC)C(=O)O` yielded a logP of 3.34.

In turn, `CCCC(CC(C)=O)C(=O)O` (configuration not stated) showed a logP of 1.31.

Compound `CC(C)CCn1cnnn1` returned a logP of 1.29.

Take `CCCCCCCc1nn[nH]n1`: the logP amounted to 2.01.

In the case of `CC1(C(=O)O)CCCCC1`, the logP was 2.38.

For the compound `C/C=C/C(=C\CC)C(=O)O`, the logP stood at 2.27.

As to `CCCCN(CCCC)C(=O)CCC(=O)O`, the logP was 2.3.

Values taken from the SangsterLogP compilation.
